The test concerns 2G12. The test can be described thus: Binding curve and KD determination of 2G12-glycopeptide interaction (radiolabeled glycopeptide, protein G magnetic bead capture, scintillation counting). The settings on record: for Fmax [%] / Kd: Table 6 mutational analysis, radioactive bead binding assay; for Kd: ribosomally translated. The method, then: The resulting mRNAs were purified by denaturing PAGE or MEGAclear kit (Ambion), and 1 μM RNA was used in PURE system translation (reaction volume of translation varied). Typically, 25 μL of translated reaction was diluted with 100 μL of binding buffer (50 mM Tris-HCl, pH 7.8, 300 mM NaCl, 5 mM β-mercaptoethanol) and 25 μL of Ni-NTA agarose suspension (Qiagen), and tumbled at room temperature for 1 h. The resins were transferred to 0.22 μm spin-filter rinsing with 100 μL of bind buffer, and washed with 3×200 μL of bind buffer and 2×200 μL of wash buffer (50 mM Tris-HCl, pH 7.8, 5 mM β-mercaptoethanol). The bound peptides were eluted with 2×25 μL of 0.1% TFA. The eluted peptides were analyzed by MALDI-TOF MS, using α-Cyano-4-hydroxycinnamic acid matrix (Sigma), with or without desalting with ZipTip C18 resin (Millipore). For calibration of MALDI-TOF-MS, at least two of the following standards, bovine insulin, E. coli thioredoxin and/or horse apomyoglobin were used. To quantitate peptide yields, the radioactivities were measured by liquid scintillation counting. For the click reaction, the translated and purified peptides were mixed with 0.1% (v/v) Triton X-100, and then dialyzed against H2O containing 0.1% (v/v) Triton X-100 using Slide-A-Lyzer MINI Dialysis Devices, 3.5K MWCO (Thermo Scientific) overnight to desalt. After dialysis, the peptides were divided into two portions: one was glycosylated via the click reaction, while the other was saved as a non-glycosylated peptide control. […] The glycosylated peptide (<4 pmol) was incubated with 100 nM 2G12 in selection buffer (40 μL) at room temp. The solution was then tumbled 30 min with 0.12 mg of equilibrated Dynabeads Protein G to capture 2G12-glycopeptide complex. Beads were then washed with 3×40 μL of selection buffer and resuspended in 10 μL of selection buffer. The resuspended beads were heated at 70° C. for 30 min to denature 2G12 and elute glycopeptides, chilled on ice for 5 min, and tumbled at room temperature for 10 min. The magnetically isolated supernatant was recovered and the beads were rinsed with 10 μL of selection buffer.
Then, the solution was added to 0.12 mg of pre-equilibrated Dynabeads Protein G and tumbled at room temperature for 30 min. The supernatant was removed and the beads were washed with 3×40 μL of selection buffer. The radioactivities of the supernatant and wash solutions were measured by liquid scintillation counting as unbound fractions. […] The beads were resuspended in 40 μL of selection buffer, heated at 70° C. for 30 min to elute the bound glycopeptides, chilled on ice for 5 min, and tumbled at room temperature for 10 min. The supernatant was removed, and the beads were washed with 40 μL of selection buffer and resuspended in 40 μL of selection buffer. The radioactivities of these solutions and suspensions were measured by liquid scintillation counting separately and the values were combined as apparent bound fractions. […] All experiments were done at least in triplicate. KDs were calculated as described in the footnote of Table 4 (below).

In general, Kd refers to the concentration at which binding is half-saturated.

*1 amine or outer side, *2 acyl side, *3 side chain or, on linkers, in order; H or OH if unused. Where a SMILES comes first, the peptide text is derived from it. [ ]: non-standard residue; d: D form. The star is where a group is joined. X1 = O=C([C@H](CCc1cn(C2CCC(OC3O[C@H](CO[C@H]4O[C@H](CO[C@H]5O[C@H](CO)[C@@H](O)[C@H](O)[C@@H]5O[C@H]5O[C@H](CO)[C@@H](O)[C@H](O)[C@@H]5O)[C@@H](O)[C@H](O[C@H]5O[C@H](CO)[C@@H](O)[C@H](O)[C@@H]5O[C@H]5O[C@H](CO)[C@@H](O)[C@H](O)[C@@H]5O)[C@@H]4O)[C@@H](O)[C@H](O[C@H]4O[C@H](CO)[C@@H](O)[C@H](O)[C@@H]4O[C@H]4O[C@H](CO)[C@@H](O)[C@H](O)[C@@H]4O[C@H]4O[C@H](CO)[C@@H](O)[C@H](O)[C@@H]4O)[C@@H]3O)CC2)nn1)N[*:1])[*:2]; For = O=C*

As for `CC[C@H](C)[C@H](NC(=O)[C@H](CO)NC(=O)[C@H](CCCNC(=N)N)NC(=O)[C@H](CCc1cn(C2CCC(OC3O[C@H](CO[C@H]4O[C@H](CO[C@H]5O[C@H](CO)[C@@H](O)[C@H](O)[C@@H]5O[C@H]5O[C@H](CO)[C@@H](O)[C@H](O)[C@@H]5O)[C@@H](O)[C@H](O[C@H]5O[C@H](CO)[C@@H](O)[C@H](O)[C@@H]5O[C@H]5O[C@H](CO)[C@@H](O)[C@H](O)[C@@H]5O)[C@@H]4O)[C@@H](O)[C@H](O[C@H]4O[C@H](CO)[C@@H](O)[C@H](O)[C@@H]4O[C@H]4O[C@H](CO)[C@@H](O)[C@H](O)[C@@H]4O[C@H]4O[C@H](CO)[C@@H](O)[C@H](O)[C@@H]4O)[C@@H]3O)CC2)nn1)NC=O)C(=O)N1CCC[C@H]1C(=O)N[C@@H](Cc1c[nH]c2ccccc12)C(=O)N[C@@H](Cc1ccc(O)cc1)C(=O)N[C@H](C(=O)N[C@@H](Cc1ccc(O)cc1)C(=O)N[C@@H](CCCNC(=N)N)C(=O)N[C@@H](Cc1c[nH]c2ccccc12)C(=O)N[C@@H](CC(C)C)C(=O)N1CCC[C@H]1C(=O)N[C@@H](CC(N)=O)C(=O)NCC(=O)N[C@@H](CO)C(=O)NCC(=O)N[C@@H](CO)C(=O)N[C@@H](CC(C)C)C(=O)NCC(=O)N[C@@H](Cc1c[nH]cn1)C(=O)N[C@@H](Cc1c[nH]cn1)C(=O)N[C@@H](Cc1c[nH]cn1)C(=O)N[C@@H](Cc1c[nH]cn1)C(=O)N[C@@H](Cc1c[nH]cn1)C(=O)N[C@@H](Cc1c[nH]cn1)C(=O)N[C@@H](CCCNC(=N)N)C(=O)N[C@@H](CC(=O)O)C(=O)N[C@@H](Cc1ccc(O)cc1)C(=O)N[C@@H](CCCCN)C(=O)N[C@@H](CC(=O)O)C(=O)N[C@@H](CC(=O)O)C(=O)N[C@@H](CC(=O)O)C(=O)N[C@@H](CC(=O)O)C(=O)N[C@@H](CCCCN)C(=O)O)[C@@H](C)O` (some centres unmarked) [Clone 10V1-Δ19, XRSIPWYTYRWLPN] (For-[X1]RSIPWYTYRWLPNGSGSLGHHHHHHRDYKDDDDK-OH; C-terminus assumed), the “Fmax [%]” value was determined as 20% and the equilibrium dissociation constant (Kd) was about 7.5 nM. Further, for the setting “truncated clones, Table 6”, the “binding to 2G12 after truncation (in words)” value is listed as “tight binding”.
As for `CC[C@H](C)[C@H](NC(=O)[C@H](CCC(N)=O)NC(=O)[C@H](CCCCN)NC(=O)[C@H](CC(C)C)NC(=O)[C@H](Cc1c[nH]cn1)NC(=O)[C@H](CC(C)C)NC(=O)[C@@H](NC(=O)[C@H](CC(=O)O)NC(=O)[C@H](CCc1cn(C2CCC(OC3O[C@H](CO[C@H]4O[C@H](CO[C@H]5O[C@H](CO)[C@@H](O)[C@H](O)[C@@H]5O[C@H]5O[C@H](CO)[C@@H](O)[C@H](O)[C@@H]5O)[C@@H](O)[C@H](O[C@H]5O[C@H](CO)[C@@H](O)[C@H](O)[C@@H]5O[C@H]5O[C@H](CO)[C@@H](O)[C@H](O)[C@@H]5O)[C@@H]4O)[C@@H](O)[C@H](O[C@H]4O[C@H](CO)[C@@H](O)[C@H](O)[C@@H]4O[C@H]4O[C@H](CO)[C@@H](O)[C@H](O)[C@@H]4O[C@H]4O[C@H](CO)[C@@H](O)[C@H](O)[C@@H]4O)[C@@H]3O)CC2)nn1)NC=O)[C@@H](C)O)C(=O)NCC(=O)NCC(=O)N[C@@H](CCc1cn(C2CCC(OC3O[C@H](CO[C@H]4O[C@H](CO[C@H]5O[C@H](CO)[C@@H](O)[C@H](O)[C@@H]5O[C@H]5O[C@H](CO)[C@@H](O)[C@H](O)[C@@H]5O)[C@@H](O)[C@H](O[C@H]5O[C@H](CO)[C@@H](O)[C@H](O)[C@@H]5O[C@H]5O[C@H](CO)[C@@H](O)[C@H](O)[C@@H]5O)[C@@H]4O)[C@@H](O)[C@H](O[C@H]4O[C@H](CO)[C@@H](O)[C@H](O)[C@@H]4O[C@H]4O[C@H](CO)[C@@H](O)[C@H](O)[C@@H]4O[C@H]4O[C@H](CO)[C@@H](O)[C@H](O)[C@@H]4O)[C@@H]3O)CC2)nn1)C(=O)N1CCC[C@H]1C(=O)N[C@@H](CC(N)=O)C(=O)N[C@@H](CO)C(=O)N[C@H](C(=O)N[C@H](C(=O)N[C@@H](CCC(N)=O)C(=O)N[C@@H](CCC(N)=O)C(=O)N[C@@H](CC(=O)O)C(=O)N[C@H](C(=O)N[C@@H](CCCNC(=N)N)C(=O)N[C@@H](CCc1cn(C2CCC(OC3O[C@H](CO[C@H]4O[C@H](CO[C@H]5O[C@H](CO)[C@@H](O)[C@H](O)[C@@H]5O[C@H]5O[C@H](CO)[C@@H](O)[C@H](O)[C@@H]5O)[C@@H](O)[C@H](O[C@H]5O[C@H](CO)[C@@H](O)[C@H](O)[C@@H]5O[C@H]5O[C@H](CO)[C@@H](O)[C@H](O)[C@@H]5O)[C@@H]4O)[C@@H](O)[C@H](O[C@H]4O[C@H](CO)[C@@H](O)[C@H](O)[C@@H]4O[C@H]4O[C@H](CO)[C@@H](O)[C@H](O)[C@@H]4O[C@H]4O[C@H](CO)[C@@H](O)[C@H](O)[C@@H]4O)[C@@H]3O)CC2)nn1)C(=O)N[C@H](C(=O)N[C@@H](CO)C(=O)N[C@H](C(=O)N1CCC[C@H]1C(=O)N[C@@H](Cc1ccc(O)cc1)C(=O)N[C@H](C(=O)N[C@@H](Cc1ccc(O)cc1)C(=O)N[C@H](C(=O)N[C@@H](Cc1c[nH]c2ccccc12)C(=O)N1CCC[C@H]1C(=O)NCC(=O)N[C@@H](CO)C(=O)NCC(=O)N[C@@H](CO)C(=O)N[C@@H](CC(C)C)C(=O)NCC(=O)N[C@@H](Cc1c[nH]cn1)C(=O)N[C@@H](Cc1c[nH]cn1)C(=O)N[C@@H](Cc1c[nH]cn1)C(=O)N[C@@H](Cc1c[nH]cn1)C(=O)N[C@@H](Cc1c[nH]cn1)C(=O)N[C@@H](Cc1c[nH]cn1)C(=O)N[C@@H](CCCNC(=N)N)C(=O)N[C@@H](CC(=O)O)C(=O)N[C@@H](Cc1ccc(O)cc1)C(=O)N[C@@H](CCCCN)C(=O)N[C@@H](CC(=O)O)C(=O)N[C@@H](CC(=O)O)C(=O)N[C@@H](CC(=O)O)C(=O)N[C@@H](CC(=O)O)C(=O)N[C@@H](CCCCN)C(=O)O)[C@@H](C)O)[C@@H](C)O)[C@@H](C)CC)[C@@H](C)O)C(C)C)[C@@H](C)O)[C@@H](C)CC` (some centres unmarked) [Clone 10F3-C15S], the “Fmax [%]” value was found to be 63% and the Kd amounted to 2.91 nM.

For the origin of these results see patent US11345912B2, “Directed evolution of multivalent glycopeptides that tightly bind to target proteins” (Brandeis University, priority 2013, dated 2022).
